Results on eight compounds are retold here after patent US20240270762A1, “PENICILLIN-BINDING PROTEIN INHIBITORS” (priority 2021, published 2024).

≈ marks a conversion by molar mass, not a printed value. Read-outs that look alike come from different tables or passages of the source.

One experiment has as its target T1, A. baumannii PBP1a (Acinetobacter baumannii, UniProt A0ABX6CK30).
T1 sequence (A0ABX6CK30 1-851): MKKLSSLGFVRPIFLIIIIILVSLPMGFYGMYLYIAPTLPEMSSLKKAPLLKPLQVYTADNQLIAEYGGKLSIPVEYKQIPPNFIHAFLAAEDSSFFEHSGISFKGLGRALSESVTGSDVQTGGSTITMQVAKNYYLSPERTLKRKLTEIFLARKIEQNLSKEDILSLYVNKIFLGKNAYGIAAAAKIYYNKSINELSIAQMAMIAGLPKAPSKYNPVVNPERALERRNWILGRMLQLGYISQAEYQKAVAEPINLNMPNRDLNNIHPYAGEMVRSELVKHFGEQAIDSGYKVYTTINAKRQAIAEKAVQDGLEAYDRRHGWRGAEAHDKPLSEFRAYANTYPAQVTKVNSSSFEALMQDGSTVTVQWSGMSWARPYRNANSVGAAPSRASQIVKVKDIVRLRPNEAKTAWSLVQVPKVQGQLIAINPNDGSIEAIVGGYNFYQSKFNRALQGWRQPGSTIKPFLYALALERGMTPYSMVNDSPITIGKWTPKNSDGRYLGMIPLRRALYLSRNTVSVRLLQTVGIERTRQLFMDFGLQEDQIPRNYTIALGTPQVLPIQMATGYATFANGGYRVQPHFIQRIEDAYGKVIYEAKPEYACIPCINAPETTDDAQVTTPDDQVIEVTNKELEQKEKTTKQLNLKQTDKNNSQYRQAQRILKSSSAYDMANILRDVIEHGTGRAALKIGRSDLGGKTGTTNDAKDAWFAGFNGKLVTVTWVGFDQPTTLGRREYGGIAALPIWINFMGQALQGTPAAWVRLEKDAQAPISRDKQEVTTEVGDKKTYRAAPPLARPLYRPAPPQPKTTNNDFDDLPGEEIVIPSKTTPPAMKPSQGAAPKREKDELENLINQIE
Nature of the experiment: Bocillin-FL competition binding via gel filtration, A. baumannii PBP1a. The conditions noted are these: competition binding assay using Bocillin-FL via gel filtration; read-out: A. baumannii PBP1a Potency. As for the experimental part:
(§1) Affinity to A. baumannii PBP1a and PBP2 was assessed a competitive equilibrium binding assay using Bocillin-FL as the reporter molecule. Enzyme was pre-incubated with increasing concentrations of inhibitors, prior to addition of Bocillin and further incubation for 15 minutes. PBP bound with Bocillin-FL was separated by gel filtration using 96-well Zeba Spin size exclusion plates, and the fluorescence measured. The inhibitor affinity (reported as the EC50) was determined by plotting the fraction of PBP bound with Bocillin-FL at each inhibitor concentration against the inhibitor concentration, and fitting the data to the following equation:
(§2) [formula] • where y is the fraction bound at a given inhibitor concentration, ymin is the fraction bound when the enzyme is completely inactivated, ymax is the maximum (uninhibited) fraction bound, n is the Hill coefficient, and x is the inhibitor concentration.

In a further experiment the target is A. baumannii PBP2 (Acinetobacter baumannii, UniProt D0C8Z9). As to the kind of experiment: Bocillin-FL competition binding via gel filtration, A. baumannii PBP2. As for the experimental part: as §1, §2
Chain of A. baumannii PBP2 (D0C8Z9 whole entry): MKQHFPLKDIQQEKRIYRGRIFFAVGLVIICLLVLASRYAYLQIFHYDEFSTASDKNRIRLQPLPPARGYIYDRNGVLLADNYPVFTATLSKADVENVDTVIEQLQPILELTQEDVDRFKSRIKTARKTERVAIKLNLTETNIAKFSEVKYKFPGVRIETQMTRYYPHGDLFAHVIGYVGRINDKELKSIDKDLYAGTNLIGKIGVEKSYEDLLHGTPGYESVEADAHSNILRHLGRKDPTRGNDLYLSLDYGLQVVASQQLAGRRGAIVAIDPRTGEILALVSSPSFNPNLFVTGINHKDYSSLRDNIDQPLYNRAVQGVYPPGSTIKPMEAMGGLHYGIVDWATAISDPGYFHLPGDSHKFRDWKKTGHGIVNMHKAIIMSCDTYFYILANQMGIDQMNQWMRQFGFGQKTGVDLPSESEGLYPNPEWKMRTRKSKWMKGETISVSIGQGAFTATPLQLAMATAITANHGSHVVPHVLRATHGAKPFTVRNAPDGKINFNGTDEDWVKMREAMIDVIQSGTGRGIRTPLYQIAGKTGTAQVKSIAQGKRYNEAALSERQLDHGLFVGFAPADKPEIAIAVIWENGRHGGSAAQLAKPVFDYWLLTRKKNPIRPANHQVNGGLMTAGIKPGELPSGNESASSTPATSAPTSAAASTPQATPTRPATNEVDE
A further experiment has as its system P. aeruginosa ATCC 27853. Nature of the experiment: microbe, parasite or virus in culture. Type of experiment: cell-based. Particulars: Pseudomonas aeruginosa, ATCC27853, read-out: Minimum inhibitory concentration, P. aeruginosa ATCC 27853.
In another experiment the test system is P. aeruginosa ATCC 35151. Nature of the experiment: microbe, parasite or virus in culture. The conditions noted are these: Pseudomonas aeruginosa, ATCC35151, read-out: Minimum inhibitory concentration, P. aeruginosa ATCC 35151. Type of experiment: cell-based.
Experiment [1] deals with P. aeruginosa (ΔmexAB-oprM). As to the kind of experiment: Broth microdilution MIC in iron-depleted CAMHB (IDM). Type of experiment: cell-based. Particulars: Pseudomonas aeruginosa, read-out: Minimum inhibitory concentration, P. aeruginosa ΔmexAB-oprM.
The subject of another experiment is P. aeruginosa CDC-0054. As to the kind of experiment: microbe, parasite or virus in culture. Type of experiment: cell-based. Particulars: Pseudomonas aeruginosa, CDC0054, read-out: Minimum inhibitory concentration, P. aeruginosa CDC-0054.
Another experiment relates to P. aeruginosa CDC-0090. As to the kind of experiment: microbe, parasite or virus in culture. The experiment is classed as cell-based. The conditions noted are these: Pseudomonas aeruginosa, CDC0090, read-out: Minimum inhibitory concentration, P. aeruginosa CDC-0090.
A further experiment concerns P. aeruginosa CDC-0095. As to the kind of experiment: microbe, parasite or virus in culture. Type of experiment: cell-based. The conditions noted are these: Pseudomonas aeruginosa, CDC0095, read-out: Minimum inhibitory concentration, P. aeruginosa CDC-0095.
For experiment [2], the system named is B. thailandensis ATCC 700388. Nature of the experiment: microbe, parasite or virus in culture. Particulars: Burkholderia thailandensis, ATCC700388, read-out: Minimum inhibitory concentration (MIC), B. thailandensis ATCC 700388. Type of experiment: cell-based.
The test system of experiment [3] is B. humptydooensis ATCC BAA-2767. Nature of the experiment: microbe, parasite or virus in culture. Type of experiment: cell-based. The conditions noted are these: Burkholderia humptydooensis, ATCCBAA2767, read-out: Minimum inhibitory concentration (MIC), B. humptydooensis ATCC BAA-2767.
For a further experiment, the system named is P. aeruginosa CDC-0110. As to the kind of experiment: microbe, parasite or virus in culture. The conditions noted are these: Pseudomonas aeruginosa, CDC0110, read-out: Minimum inhibitory concentration, P. aeruginosa CDC-0110. The experiment is classed as cell-based.

With `O=C(O)c1c(F)ccc2c1OB(O)[C@@H](NC(=O)[C@H](NC(=O)N1CCN(C3CCN(S(=O)(=O)c4ccc5[nH]nnc5c4)CC3)C1=O)c1cc(F)c(O)c(O)c1Cl)C2` (single isomer, unassigned) [Example 621], the EC50 on A. baumannii PBP1a and at A. baumannii PBP2 was less than 10 µM in each case. In addition, the MIC (with P. aeruginosa ATCC 27853; in the experiment on P. aeruginosa ATCC 35151; in experiment [1]; in the experiment with P. aeruginosa CDC-0054; in the experiment on P. aeruginosa CDC-0090; with P. aeruginosa CDC-0095) was less than 1 µg/mL throughout. Besides, the MIC is 2 to 4 µg/mL (≈ 2.44 to 4.88 µM) in experiment [2], less than 1 µg/mL in experiment [3] and less than 1 µg/mL with P. aeruginosa CDC-0110.
On to `O=C(O)c1c(F)ccc2c1OB(O)[C@@H](NC(=O)[C@H](NC(=O)N1CCN(C3CCN(Cc4ccnnc4)CC3)C1=O)c1cc(F)c(O)c(O)c1Cl)C2` [Example 601, (R)-3-((R)-2-(2-chloro-5-fluoro-3,4-dihydroxyphenyl)-2-(2-oxo-3-(1-(pyridazin-4-ylmethyl)piperidin-4-yl)imidazolidine-1-carboxamido)acetamido)-7-fluoro-2-hydroxy-3,4-dihydro-2H-benzo[e][1,2]oxaborinine-8-carboxylic acid], for which the results for the EC50 at A. baumannii PBP1a and at A. baumannii PBP2 were less than 10 µM and 10 to 50 µM, respectively. Besides, the MIC with P. aeruginosa ATCC 27853 is less than 1 µg/mL; in the experiment with P. aeruginosa ATCC 35151, less than 1 µg/mL; in [1] it was less than 1 µg/mL; with P. aeruginosa CDC-0054, less than 1 µg/mL; with P. aeruginosa CDC-0090, 2 to 4 µg/mL (≈ 2.74 to 5.48 µM); with P. aeruginosa CDC-0095, 2 to 4 µg/mL (≈ 2.74 to 5.48 µM). Besides, the MIC (in experiment [2]; in experiment [3]; in the experiment with P. aeruginosa CDC-0110) was less than 1 µg/mL in each case.
Take `NCc1cc(O)cc(C(=O)N2CCC(N3CCN(C(=O)N[C@@H](C(=O)N[C@H]4Cc5ccc(F)c(C(=O)O)c5OB4O)c4cc(F)c(O)c(O)c4Cl)C3=O)CC2)c1` (single isomer, unassigned) [Example 615]: the EC50 at A. baumannii PBP1a and on A. baumannii PBP2 was 10 to 50 µM throughout. Also, the MIC (in the experiment on P. aeruginosa ATCC 27853; in the experiment on P. aeruginosa ATCC 35151; in experiment [1]; in the experiment with P. aeruginosa CDC-0054; in the experiment on P. aeruginosa CDC-0090; with P. aeruginosa CDC-0095) was less than 1 µg/mL each time. The MIC (in [2]; in experiment [3]; in the experiment with P. aeruginosa CDC-0110) was less than 1 µg/mL each time.
Consider `NCc1cccc(C(=O)N2CCC(N3CCN(C(=O)N[C@@H](C(=O)N[C@H]4Cc5ccc(F)c(C(=O)O)c5OB4O)c4cc(F)c(O)c(O)c4Cl)C3=O)CC2)c1` [Example 603, (R)-3-((R)-2-(3-(1-(3-(aminomethyl)benzoyl)piperidin-4-yl)-2-oxoimidazolidine-1-carboxamido)-2-(2-chloro-5-fluoro-3,4-dihydroxyphenyl)acetamido)-7-fluoro-2-hydroxy-3,4-dihydro-2H-benzo[e][1,2]oxaborinine-8-carboxylic acid], for which the EC50 on A. baumannii PBP1a and on A. baumannii PBP2 was 10 to 50 µM each time. The MIC with P. aeruginosa ATCC 27853 is less than 1 µg/mL; in the experiment with P. aeruginosa ATCC 35151 it was less than 1 µg/mL; in experiment [1] (iron-depleted CAMHB (IDM), […]), less than 1 µg/mL; with P. aeruginosa CDC-0054 it was less than 1 µg/mL; with P. aeruginosa CDC-0090 it was 2 to 4 µg/mL (≈ 2.59 to 5.19 µM); in the experiment with P. aeruginosa CDC-0095, 2 to 4 µg/mL (≈ 2.59 to 5.19 µM). Besides, the MIC (in experiment [2]; in experiment [3]; with P. aeruginosa CDC-0110) was less than 1 µg/mL throughout.
Regarding `Nc1cc(CN2CCC(N3CCN(C(=O)N[C@@H](C(=O)N[C@H]4Cc5ccc(F)c(C(=O)O)c5OB4O)c4cc(F)c(O)c(O)c4Cl)C3=O)CC2)ccn1` [Example 619, (R)-3-((R)-2-(3-(1-((2-aminopyridin-4-yl)methyl)piperidin-4-yl)-2-oxoimidazolidine-1-carboxamido)-2-(2-chloro-5-fluoro-3,4-dihydroxyphenyl)acetamido)-7-fluoro-2-hydroxy-3,4-dihydro-2H-benzo[e][1,2]oxaborinine-8-carboxylic acid], the EC50 was less than 10 µM on A. baumannii PBP1a and 10 to 50 µM at A. baumannii PBP2. For the same compound, the MIC (in the experiment on P. aeruginosa ATCC 27853; with P. aeruginosa ATCC 35151; in experiment [1]; with P. aeruginosa CDC-0054; in the experiment on P. aeruginosa CDC-0090; with P. aeruginosa CDC-0095) was less than 1 µg/mL throughout. The MIC (in experiment [2]; in experiment [3]; in the experiment with P. aeruginosa CDC-0110) was less than 1 µg/mL each time.
Take `O=C(O)c1c(F)ccc2c1OB(O)[C@@H](NC(=O)[C@@H](NC(=O)N1CCN(C3CCN(S(=O)(=O)c4ccc5[nH]nnc5c4)CC3)C1=O)c1cc(F)c(O)c(O)c1Cl)C2` (single isomer, unassigned) [Example 620]: the EC50 on A. baumannii PBP1a and at A. baumannii PBP2 was less than 10 µM throughout. Besides, the MIC in the experiment on P. aeruginosa ATCC 27853 was 2 to 4 µg/mL (≈ 2.44 to 4.88 µM); with P. aeruginosa ATCC 35151, less than 1 µg/mL; in experiment [1], less than 1 µg/mL; with P. aeruginosa CDC-0054, 2 to 4 µg/mL (≈ 2.44 to 4.88 µM); in the experiment on P. aeruginosa CDC-0090, 2 to 4 µg/mL (≈ 2.44 to 4.88 µM); in the experiment on P. aeruginosa CDC-0095, greater than 128 µg/mL. In addition, the MIC (in experiment [2]; in experiment [3]; in the experiment with P. aeruginosa CDC-0110) was greater than 128 µg/mL throughout.
Consider `NCc1ccc(C(=O)N2CCC(N3CCN(C(=O)NC(C(=O)N[C@H]4Cc5ccc(F)c(C(=O)O)c5OB4O)c4cc(F)c(O)c(O)c4Cl)C3=O)CC2)cc1O` (single isomer, unassigned) [Example 616], for which the EC50 on A. baumannii PBP1a and on A. baumannii PBP2 was 10 to 50 µM throughout. The MIC (in the experiment on P. aeruginosa ATCC 27853; in the experiment with P. aeruginosa ATCC 35151; in [1]; in the experiment on P. aeruginosa CDC-0054; in the experiment with P. aeruginosa CDC-0090; in the experiment with P. aeruginosa CDC-0095) was less than 1 µg/mL each time. Moreover, the MIC is 2 to 4 µg/mL (≈ 2.54 to 5.08 µM) in [2], less than 1 µg/mL in [3] and less than 1 µg/mL with P. aeruginosa CDC-0110.
`NCc1ccc(C(=O)N2CCC(N3CCN(C(=O)NC(C(=O)N[C@H]4Cc5ccc(F)c(C(=O)O)c5OB4O)c4cc(F)c(O)c(O)c4Cl)C3=O)CC2)cc1` (single isomer, unassigned) [Example 604]: the EC50 on A. baumannii PBP1a and on A. baumannii PBP2 was 10 to 50 µM throughout. Moreover, the MIC with P. aeruginosa ATCC 27853 is less than 1 µg/mL; in the experiment with P. aeruginosa ATCC 35151, less than 1 µg/mL; in [1], less than 1 µg/mL; in the experiment with P. aeruginosa CDC-0054, less than 1 µg/mL; in the experiment on P. aeruginosa CDC-0090 it was less than 1 µg/mL; in the experiment with P. aeruginosa CDC-0095, 2 to 4 µg/mL (≈ 2.59 to 5.19 µM). Also, the MIC (in [2]; in [3]; in the experiment with P. aeruginosa CDC-0110) was less than 1 µg/mL each time.
